Source: patent publication US10689377B2 (Mirati Therapeutics, Inc., priority 2017, dated 2020)

Molecular target: KRas G12C (Homo sapiens, UniProt P01116, G12C)
Experiment: Cellular inhibition of KRas G12C measured by Phospho-ERK in NCI-H358 cells
Type: cell-based
Settings: pERK(Thr202/Tyr204) normalized with GAPDH, NCI-H358 cells, 3 hours; read-out: IC50
In short: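 Ratio of phospho-ERK(Thr202/Tyr204) to GAPDH, read by near-infrared secondary antibodies on fixed, permeabilised NCI-H358 cells, expressed relative to DMSO control. Compound exposure was 3 h at 0.5% DMSO. IC50 values come from 4-parameter curve fits.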

KRas G12C, sequence (P01116 1-188 isoform P01116-2 G12C): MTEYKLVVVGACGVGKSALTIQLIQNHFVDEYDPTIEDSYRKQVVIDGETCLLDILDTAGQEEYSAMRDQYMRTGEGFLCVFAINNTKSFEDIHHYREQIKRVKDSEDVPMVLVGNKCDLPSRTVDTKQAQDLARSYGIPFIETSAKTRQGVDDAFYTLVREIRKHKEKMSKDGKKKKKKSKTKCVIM

Row | IC50 | Compound
1 | > 1000 nM | C=CC(=O)N1CCN(c2nc(OCC3CN(C)CCN3)nc3c2CCN(c2cc(O)cc4ccccc24)C3)CC1 (centres unmarked) [Example 80, 1-(4-(7-(3-hydroxynaphthalen-1-yl)-2-((4-methylpiperazin-2-yl)methoxy)-5,6,7,8-tetrahydropyrido[3,4-d]pyrimidin-4-yl)piperazin-1-yl)prop-2-en-1-one]
2 | 0.1 to 1000 nM | C=CC(=O)N1CCN(c2nc(OCCN(CC)CC)nc3c2CCN(c2cc(O)cc4ccccc24)C3)CC1 [Example 102]
3 | > 1000 nM | C=CC(=O)N1CCN(c2nc(OCC(C)N(C)C)nc3c2CCN(c2cc(O)cc4ccccc24)C3)CC1 (centres unmarked) [Example 73, 1-(4-(2-(2-(dimethylamino)propoxy)-7-(3-hydroxynaphthalen-1-yl)-5,6,7,8-tetrahydropyrido[3,4-d]pyrimidin-4-yl)piperazin-1-yl)prop-2-en-1-one]
4 | 0.1 to 1000 nM | C=CC(=O)N1CCN(c2nc(OC[C@@H]3CCCN3C)nc3c2CCN(c2ccc(F)c4ccccc24)C3)CC1CC#N (stereo partly drawn) [Example 246, 2-[4-[7-(4-fluoro-1-naphthyl)-2-[[(2S)-1-methylpyrrolidin-2-yl]methoxy]-6,8-dihydro-5H-pyrido[3,4-d]pyrimidin-4-yl]-1-prop-2-enoyl-piperazin-2-yl] acetonitrile]
5 | 0.1 to 1000 nM | Cc1cccc2cccc(N3CCc4c(nc(OC[C@H]5C[C@@H](F)CN5C)nc4N4CCN(C(=O)/C=C/CO)[C@@H](CC#N)C4)C3)c12 [Example 522, 2-((S)-4-(2-(((2R,4R)-4-fluoro-1-methylpyrrolidin-2-yl)methoxy)-7-(8-methylnaphthalen-1-yl)-5,6,7,8-tetrahydropyrido[3,4-d]pyrimidin-4-yl)-1-((E)-4-hydroxybut-2-enoyl)piperazin-2-yl)acetonitrile]
6 | 0.1 to 1000 nM | C=CC(=O)N1CCN(c2nc(OC[C@@H]3CCCCN3C)nc3c2CCN(c2cccc4ccccc24)C3)C[C@@H]1CC#N [Example 377, 2-((S)-1-acryloyl-4-(2-(((S)-1-methylpiperidin-2-yl)methoxy)-7-(naphthalen-1-yl)-5,6,7,8-tetrahydropyrido[3,4-d]pyrimidin-4-yl)piperazin-2-yl)acetonitrile]
7 | 0.1 to 1000 nM | C=CC(=O)N1CCN(c2nc(OCCCN3C[C@@H]4C[C@H]3CO4)nc3c2CCN(c2cccc4ccccc24)C3)CC1CC#N (stereo partly drawn) [Example 154, 2-[4-[7-(1-naphthyl)-2-[3-[(1S,4S)-2-oxa-5-azabicyclo[2.2.1]heptan-5-yl]propoxy]-6,8-dihydro-5H-pyrido[3,4-d]pyrimidin-4-yl]-1-prop-2-enoyl-piperazin-2-yl] acetonitrile]
8 | 0.1 to 1000 nM | C=CC(=O)N1CCN(c2nc(OC[C@@H]3CCCCN3C)nc3c2CCN(c2cc(O)cc4ccccc24)C3)CC1 [Example 196, (S)-1-(4-(7-(3-hydroxynaphthalen-1-yl)-2-((1-methylpiperidin-2-yl)methoxy)-5,6,7,8-tetrahydropyrido[3,4-d]pyrimidin-4-yl)piperazin-1-yl)prop-2-en-1-one]
9 | > 1000 nM | C=CC(=O)N1CCN(c2nc(OC[C@@H]3CCCN3C)nc3c2CCN(c2c(Cl)ccc4[nH]ncc24)C3)CC1 [Example 250, 1-[4-[7-(5-chloro-1H-indazol-4-yl)-2-[[(2S)-1-methylpyrrolidin-2-yl]methoxy]-6,8-dihydro-5H-pyrido[3,4-d]pyrimidin-4-yl]piperazin-1-yl]prop-2-en-1-one]
10 | > 1000 nM | C=CC(=O)N1CCN(c2nc(OC[C@@H]3CCCN3C)nc3c2CCN(c2cccc4ccccc24)C3)CC1COC (stereo partly drawn) [Example 256, 1-(2-(methoxymethyl)-4-(2-(((S)-1-methylpyrrolidin-2-yl)methoxy)-7-(naphthalen-1-yl)-5,6,7,8-tetrahydropyrido[3,4-d]pyrimidin-4-yl)piperazin-1-yl)prop-2-en-1-one]
11 | > 1000 nM | C=CC(=O)N1CCN(c2nc(OC[C@@H]3CCCN3C)nc3c2CCN(c2cccc4ccccc24)C3)C(CC#N)C1 (stereo partly drawn) [Example 439, 2-(4-acryloyl-1-(2-(((S)-1-methylpyrrolidin-2-yl)methoxy)-7-(naphthalen-1-yl)-5,6,7,8-tetrahydropyrido[3,4-d]pyrimidin-4-yl)piperazin-2-yl)acetonitrile]
